In US20070049593A1 (priority 2004, published 2007):
Counter-ions that a name gives are not always drawn.

Target: T1, HCV polymerase (Hepatitis C virus genotype 1b, UniProt P26663)
T1 construct: a region encoding NS5B (J Virol 1991 March, 65(3), 1105-13, 544 amino acids after deletion of 47 amino acids on the C-terminal); 6xHis (C); made in house; host or cells: Escherichia coli
Assay: biochemical
Set-up: species or system HCV BK strain
Method in brief: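 His-tagged NS5B (BK strain, 47-aa C-terminal deletion, E. coli-expressed) at 0.5 μg/ml copied 5 μg/ml run-off RNA bearing the HCV 3′ UTR with 2 μM UTP plus [3H]UTP, 50 μM ATP/GTP, in pH 7.5 Tris with 5 mM MgCl2, 25 °C, 90 min. TCA-precipitated RNA was counted and IC50 calculated.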

T1 sequence (P26663 2420-2963): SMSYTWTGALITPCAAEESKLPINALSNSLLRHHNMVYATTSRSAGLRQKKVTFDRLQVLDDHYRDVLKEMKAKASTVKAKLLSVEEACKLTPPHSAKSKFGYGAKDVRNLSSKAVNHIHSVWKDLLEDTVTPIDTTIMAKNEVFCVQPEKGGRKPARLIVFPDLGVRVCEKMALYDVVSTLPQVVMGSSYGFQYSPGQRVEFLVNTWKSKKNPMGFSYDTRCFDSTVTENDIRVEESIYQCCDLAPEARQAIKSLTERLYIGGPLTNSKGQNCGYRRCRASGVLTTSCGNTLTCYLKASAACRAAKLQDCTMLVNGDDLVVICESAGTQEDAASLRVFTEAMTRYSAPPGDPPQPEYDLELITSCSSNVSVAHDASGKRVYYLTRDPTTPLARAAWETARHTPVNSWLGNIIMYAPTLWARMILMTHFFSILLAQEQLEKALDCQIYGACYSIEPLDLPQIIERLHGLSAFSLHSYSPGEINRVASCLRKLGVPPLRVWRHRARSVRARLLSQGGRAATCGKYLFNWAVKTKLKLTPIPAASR

| SMILES | IC50 [nM] |
| --- | --- |
| CC(C)(NC(=O)c1ccc2c(C3CCCCC3)c3n(c2c1)CCOc1ccccc1-3)c1ccc(CO)cc1 [Example 2-171, N-[1-(4-hydroxymethylphenyl)-1-methylethyl]-12-cyclohexyl-6,7-dihydro-5-oxa-7a-azadibenzo[a,e]azulene-9-carboxamide] | < 100 |
| CCOC(=O)c1csc(C(C)(C)NC(=O)c2ccc3c(C4CCCCC4)c4n(c3c2)CCOc2ccccc2-4)n1 [Example 2-172, ethyl 2-{1-[(12-cyclohexyl-6,7-dihydro-5-oxa-7a-azadibenzo[a,e]azulene-9-carbonyl)amino]-1-methylethyl}thiazole-4-carboxylate] | < 100 |
| CNC(=O)c1ccc2c(C3CCCCC3)c3n(c2c1)CCOc1ccccc1-3 [Example 2-173, N-methyl-12-cyclohexyl-6,7-dihydro-5-oxa-7a-azadibenzo[a,e]azulene-9-carboxamide] | < 100 |
| O=C(O)/C=C/c1ccc(NC(=O)C2(NC(=O)c3ccc4c(C5CCCCC5)c5n(c4c3)CCOc3ccccc3-5)CCNCC2)cc1 [Example 2-174, (E)-3-[4-({4-[(12-cyclohexyl-6,7-dihydro-5-oxa-7a-azadibenzo[a,e]azulene-9-carbonyl)amino]piperidine-4-carbonyl}amino)phenyl]acrylic acid] | < 100 |
| COC(=O)[C@H](Cc1ccc(O)cc1)NC(=O)c1ccc2c(C3CCCCC3)c3n(c2c1)CCOc1ccccc1-3 [Example 2-175, methyl (S)-2-[(12-cyclohexyl-6,7-dihydro-5-oxa-7a-azadibenzo[a,e]azulene-9-carbonyl)amino]-3-(4-hydroxyphenyl)propionate] | < 100 |
| CN(C)C(=O)CNc1cccc2c1OCCn1c-2c(C2CCCCC2)c2ccc(C(=O)O)cc21 [Example 2-176, 12-cyclohexyl-4-(dimethylcarbamoylmethylamino)-6,7-dihydro-5-oxa-7a-azadibenzo[a,e]azulene-9-carboxylic acid] | < 100 |
| CC(C)(NC(=O)c1ccc2c(C3CCCCC3)c3n(c2c1)CCOc1ccccc1-3)C(=O)N[C@H]1CC[C@H](O)CC1 [Example 2-177, N-[1-(trans-4-hydroxycyclohexylcarbamoyl)-1-methylethyl]-12-cyclohexyl-6,7-dihydro-5-oxa-7a-azadibenzo[a,e]azulene-9-carboxamide] | < 100 |
| CCN(C(=O)CN1CCCCC1)c1cccc2c1OCCn1c-2c(C2CCCCC2)c2ccc(C(=O)O)cc21 [Example 2-178, 12-cyclohexyl-4-{N-ethyl-N-[2-(piperidin-1-yl)acetyl]amino}-6,7-dihydro-5-oxa-7a-azadibenzo[a,e]azulene-9-carboxylic acid monohydrochloride] | < 100 |
| O=C(Nc1ccc(OCc2ccccc2)cc1)c1ccc2c(C3CCCCC3)c3n(c2c1)CCOc1ccccc1-3 [Example 2-179, N-(4-benzyloxyphenyl)-12-cyclohexyl-6,7-dihydro-5-oxa-7a-azadibenzo[a,e]azulene-9-carboxamide] | 100 to 1000 |
| O=C(N[C@@H](Cc1ccc(O)cc1)C(=O)O)c1ccc2c(C3CCCCC3)c3n(c2c1)CCOc1ccccc1-3 [Example 2-180, (S)-2-[(12-cyclohexyl-6,7-dihydro-5-oxa-7a-azadibenzo[a,e]azulene-9-carbonyl)amino]-3-(4-hydroxyphenyl)propionic acid] | < 100 |
| CC(=O)N1CCC(NC(=O)c2ccc3c(C4CCCCC4)c4n(c3c2)CCOc2ccccc2-4)(C(=O)O)CC1 [Example 2-181, 1-acetyl-4-[(12-cyclohexyl-6,7-dihydro-5-oxa-7a-azadibenzo[a,e]azulene-9-carbonyl)amino]piperidine-4-carboxylic acid] | < 100 |
| CN1CCC(NC(=O)c2ccc3c(C4CCCCC4)c4n(c3c2)CCOc2ccccc2-4)(C(=O)O)CC1 [Example 2-182, 4-[(12-cyclohexyl-6,7-dihydro-5-oxa-7a-azadibenzo[a,e]azulene-9-carbonyl)amino]-1-methylpiperidine-4-carboxylic acid] | < 100 |
| CC(C)(CNc1ccc(C(=O)O)cc1)NC(=O)c1ccc2c(C3CCCCC3)c3n(c2c1)CCOc1ccccc1-3 [Example 2-183, 4-{2-[(12-cyclohexyl-6,7-dihydro-5-oxa-7a-azadibenzo[a,e]azulene-9-carbonyl)amino]-2-methylpropylamino}benzoic acid] | < 100 |
| CC(C)(CNc1ccc(C(N)=O)cc1)NC(=O)c1ccc2c(C3CCCCC3)c3n(c2c1)CCOc1ccccc1-3 [Example 2-184, N-[2-(4-carbamoylphenylamino)-1,1-dimethylethyl]-12-cyclohexyl-6,7-dihydro-5-oxa-7a-azadibenzo[a,e]azulene-9-carboxamide] | < 100 |
| CC(C)(CNC(=O)OC(C)(C)C)NC(=O)c1ccc2c(C3CCCCC3)c3n(c2c1)CCOc1ccccc1-3 [Example 2-185, tert-butyl {2-[(12-cyclohexyl-6,7-dihydro-5-oxa-7a-azadibenzo[a,e]azulene-9-carbonyl)amino]-2-methylpropyl}carbamate] | 100 to 1000 |
| CC(C)(CN)NC(=O)c1ccc2c(C3CCCCC3)c3n(c2c1)CCOc1ccccc1-3 [Example 2-186, N-(2-amino-1,1-dimethylethyl)-12-cyclohexyl-6,7-dihydro-5-oxa-7a-azadibenzo[a,e]azulene-9-carboxamide monohydrochloride] | 100 to 1000 |
| CC(C)(CNCC(=O)O)NC(=O)c1ccc2c(C3CCCCC3)c3n(c2c1)CCOc1ccccc1-3 [Example 2-187, (2-[(12-cyclohexyl-6,7-dihydro-5-oxa-7a-azadibenzo[a,e]azulene-9-carbonyl)amino]-2-methylpropylamino)acetic acid] | 100 to 1000 |
| CC(C)(COc1ccc([N+](=O)[O-])cc1)NC(=O)c1ccc2c(C3CCCCC3)c3n(c2c1)CCOc1ccccc1-3 [Example 2-188, N-[1,1-dimethyl-2-(4-nitrophenoxy)ethyl]-12-cyclohexyl-6,7-dihydro-5-oxa-7a-azadibenzo[a,e]azulene-9-carboxamide] | 100 to 1000 |
| CN(C)CC(C)(NC(=O)c1ccc2c(C3CCCCC3)c3n(c2c1)CCOc1ccccc1-3)C(=O)O (centres unmarked) [Example 2-189, 2-[(12-cyclohexyl-6,7-dihydro-5-oxa-7a-azadibenzo[a,e]azulene-9-carbonyl)amino]-3-dimethylamino-2-methylpropionic acid] | 100 to 1000 |
| CC(C)(NC(=O)c1ccc2c(C3CCCCC3)c3n(c2c1)CCOc1ccccc1-3)C(=O)N1CCC(O)CC1 [Example 2-190, N-[2-(4-hydroxypiperidin-1-yl)-1,1-dimethyl-2-oxoethyl]-12-cyclohexyl-6,7-dihydro-5-oxa-7a-azadibenzo[a,e]azulene-9-carboxamide] | < 100 |
| O=C(O)c1ccc2c(C3CCCCC3)c3n(c2c1)CCOc1c-3cccc1N(CCN1CCCCC1)Cc1ccccc1 [Example 2-191, 4-{N-benzyl-N-[2-(piperidin-1-yl)ethyl]amino}-12-cyclohexyl-6,7-dihydro-5-oxa-7a-azadibenzo[a,e]azulene-9-carboxylic acid dihydrochloride] | < 100 |
| O=C(Nc1ccc(O)cc1)c1ccc2c(C3CCCCC3)c3n(c2c1)CCOc1ccccc1-3 [Example 2-192, N-(4-hydroxyphenyl)-12-cyclohexyl-6,7-dihydro-5-oxa-7a-azadibenzo[a,e]azulene-9-carboxamide] | < 100 |
| CC(C)(NC(=O)c1ccc2c(C3CCCCC3)c3n(c2c1)CCOc1ccccc1-3)C(=O)Nc1ccc(C(N)=O)cc1 [Example 2-193, N-[1-(4-carbamoylphenylcarbamoyl)-1-methylethyl]-12-cyclohexyl-6,7-dihydro-5-oxa-7a-azadibenzo[a,e]azulene-9-carboxamide] | < 100 |
| CN(C)C(=O)c1ccc(NC(=O)C(C)(C)NC(=O)c2ccc3c(C4CCCCC4)c4n(c3c2)CCOc2ccccc2-4)cc1 [Example 2-194, N-[1-(4-dimethylcarbamoylphenylcarbamoyl)-1-methylethyl]-12-cyclohexyl-6,7-dihydro-5-oxa-7a-azadibenzo[a,e]azulene-9-carboxamide] | < 100 |
| CC(C)(NC(=O)c1ccc2c(C3CCCCC3)c3n(c2c1)CCOc1ccccc1-3)C(=O)Nc1ccc(CO)cc1 [Example 2-195, N-[1-(4-hydroxymethylphenylcarbamoyl)-1-methylethyl]-12-cyclohexyl-6,7-dihydro-5-oxa-7a-azadibenzo[a,e]azulene-9-carboxamide] | < 100 |
| COC(=O)c1ccc2nc(C(C)(C)NC(=O)c3ccc4c(C5CCCCC5)c5n(c4c3)CCOc3ccccc3-5)[nH]c2c1 [Example 2-196, methyl 2-{1-[(12-cyclohexyl-6,7-dihydro-5-oxa-7a-azadibenzo[a,e]azulene-9-carbonyl)amino]-1-methylethyl}-3H-benzimidazole-5-carboxylate] | < 100 |
| O=C(O)c1ccc2nc(CNC(=O)c3ccc4c(C5CCCCC5)c5n(c4c3)CCOc3ccccc3-5)[nH]c2c1 [Example 2-197, 2-{[(12-cyclohexyl-6,7-dihydro-5-oxa-7a-azadibenzo[a,e]azulene-9-carbonyl)amino]methyl}-3H-benzimidazole-5-carboxylic acid] | < 100 |
| CC(C)(NC(=O)c1ccc2c(C3CCCCC3)c3n(c2c1)CCOc1ccccc1-3)c1nc2ccccc2[nH]1 [Example 2-198, N-[1-(1H-benzimidazol-2-yl)-1-methylethyl]-12-cyclohexyl-6,7-dihydro-5-oxa-7a-azadibenzo[a,e]azulene-9-carboxamide] | < 100 |
| CC(C)(NC(=O)c1ccc2c(C3CCCCC3)c3n(c2c1)CCOc1ccccc1-3)c1nc2cc(Cl)ccc2[nH]1 [Example 2-199, N-[1-(5-chloro-1H-benzimidazol-2-yl)-1-methylethyl]-12-cyclohexyl-6,7-dihydro-5-oxa-7a-azadibenzo[a,e]azulene-9-carboxamide] | < 100 |
